Experimental data as given in ChEMBL document CHEMBL1148133, “New diterpene glycosides of the fungus Acremonium striatisporum isolated from a sea cucumber” (J Nat Prod, 2002).
Values after ≈ are worked out from the molar mass of the structure shown.

Assays:
[1] = Cytotoxicity against mouse EAC; assay type: functional, cell-based; details: Ehrlich
[2] = Cytotoxicity against Strongylocentrotus intermedius developing egg; assay type: functional

SMILES	IC50 [1]	MIC [2]
C=C[C@]1(C)C=C2[C@H](O)C[C@@H]3[C@](C)(CC[C@H](O)[C@]3(C)CO[C@@H]3O[C@H](CO)[C@@H](O)[C@@H](O)[C@@H]3O)[C@H]2CC1 [VIRESCENOSIDE O]	20 µM	
C=C[C@@]1(C)CCC2=C(C1)C(=O)C[C@H]1[C@@](C)(CO[C@@H]3O[C@H](CO)[C@@H](O)[C@@H](O)[C@@H]3O)[C@@H](O)CC[C@]21C [VIRESCENOSIDE P]	20 µM	5 µM (≈ 2.4 µg/mL)
C=C[C@@]1(C)CC[C@H]2C(=CC[C@@H]3[C@]2(C)CC[C@H](O)[C@]3(C)CO[C@@H]2O[C@H](CO)[C@@H](O)[C@H](O)[C@@H]2O)C1 [VIRESCENOSIDE Q]	20 µM	
